Test results: US20260207565A1, “COMPOUNDS THAT INHIBIT PKMYT1” (Exelixis, Inc., priority 2022, published 2026)

Assays:
PKMYT1 = molecular target: T1, PKMYT1 (Homo sapiens, UniProt Q99640); assay: ADP-Glo PKMYT1 ATP-depletion assay; conditions: 50 nM PKMYT1, 13.3 nM CDK1, 88 μM ATP, 120 minutes at RT, read-out: Biochemical IC50
T1 construct: PKMYT1 (93 kD, full length, N-terminal GST tag from Signal Chem); GST (N); purchased Signal Chem
T1 sequence (Q99640 1-499): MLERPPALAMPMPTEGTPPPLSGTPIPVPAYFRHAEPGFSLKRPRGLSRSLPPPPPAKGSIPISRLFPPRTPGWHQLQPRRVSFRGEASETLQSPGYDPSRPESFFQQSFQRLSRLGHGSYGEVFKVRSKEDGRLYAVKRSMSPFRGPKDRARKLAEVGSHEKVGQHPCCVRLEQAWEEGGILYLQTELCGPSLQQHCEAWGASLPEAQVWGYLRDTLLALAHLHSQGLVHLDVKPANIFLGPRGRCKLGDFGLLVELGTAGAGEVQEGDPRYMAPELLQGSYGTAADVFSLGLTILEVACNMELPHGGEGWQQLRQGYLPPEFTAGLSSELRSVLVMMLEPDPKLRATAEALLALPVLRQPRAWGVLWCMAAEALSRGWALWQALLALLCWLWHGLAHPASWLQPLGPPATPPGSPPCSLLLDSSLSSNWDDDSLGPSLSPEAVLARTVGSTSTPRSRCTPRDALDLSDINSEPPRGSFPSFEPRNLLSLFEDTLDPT
Procedure, shortened: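 Full-length N-GST PKMYT1 (50 nM) incubated 120 min at RT with full-length GST-CDK1 (13.3 nM) and 88 μM ATP in Hepes buffer containing Mg2+, Mn2+, DTT and BSA; DMSO <10%. ADP formed was converted via ADP-Glo to luminescence; IC50 derived.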

[1] = tested on: phosphorylation of CDK1 at Thr14 in HCC1806 cells; assay: Cell lysate AlphaLISA assay measuring inhibition of phosphorylation of CDK1 Thr14; assay type: cell-based; conditions: Homo sapiens, HCC1806, 4 h, compounds incubated 4 hours, AlphaLISA SureFire Ultra CDK1 Thr14, read-out: Cellular IC50
Procedure, shortened: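 HCC1806 cells treated with compound for 4 h at 37 °C, lysed, and phospho-CDK1 Thr14 quantified by AlphaLISA SureFire Ultra. Data normalized to DMSO (0% inhibition) and 3 μM reference compound; IC50 derived.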

## Cc1ccc(O)c(C)c1-c1cc(C(N)=O)cn2ccnc12 [Compound 42, 8-(3-hydroxy-2,6-dimethylphenyl)imidazo[1,2-a]pyridine-6-carboxamide]
PKMYT1
  IC50: 1000 to 5000 nM
[1]
  IC50: 1000 to 5000 nM

## Cc1c(O)cccc1-c1c(N)c(C(N)=O)cn2ccnc12 [Compound 43, 7-amino-8-(3-hydroxy-2-methylphenyl)imidazo[1,2-a]pyridine-6-carboxamide]
PKMYT1
  IC50: 500 to 1000 nM
[1]
  IC50: ≥ 5000 nM

## Cc1ccc(O)c(C)c1-c1c(N)c(C(N)=O)cn2ccnc12 [Compound 46, 7-amino-8-(3-hydroxy-2,6-dimethylphenyl)imidazo[1,2-a]pyridine-6-carboxamide]
PKMYT1
  IC50: 50 to 500 nM
[1]
  IC50: 1000 to 5000 nM

## Cc1cn2cc(C(N)=O)c(N)c(-c3cccc(O)c3C)c2n1 [Compound 47, 7-Amino-8-(3-hydroxy-2-methylphenyl)-2-methylimidazo[1,2-a]pyridine-6-carboxamide]
PKMYT1
  IC50: 50 to 500 nM
[1]
  IC50: ≥ 5000 nM

## Cc1nc2c(-c3cccc(O)c3C)c(N)c(C(N)=O)cn2c1C [Compound 48, 7-Amino-8-(3-hydroxy-2-methylphenyl)-2,3-dimethylimidazo[1,2-a]pyridine-6-carboxamide]
PKMYT1
  IC50: 50 to 500 nM
[1]
  IC50: ≥ 5000 nM

## Cc1c(O)cccc1-c1c(N)c(C(N)=O)cn2cc(C(F)(F)F)nc12 [Compound 49, 7-amino-8-(3-hydroxy-2-methylphenyl)-2-(trifluoromethyl)imidazo[1,2-a]pyridine-6-carboxamide]
PKMYT1
  IC50: 50 to 500 nM
[1]
  IC50: ≥ 5000 nM

## COC(=O)c1cnc2c(-c3cccc(O)c3C)c(N)c(C(N)=O)cn12 [Compound 50, Methyl 7-amino-6-carbamoyl-8-(3-hydroxy-2-methylphenyl)imidazo[1,2-a]pyridine-3-carboxylate]
PKMYT1
  IC50: 50 to 500 nM
[1]
  IC50: 500 to 1000 nM

## Cc1c(O)cccc1-c1c(N)c(C(N)=O)nc2c1c(C(N)=O)nn2C [Compound 55, 5-amino-4-(3-hydroxy-2-methylphenyl)-1-methyl-1H-pyrazolo[3,4-b]pyridine-3,6-dicarboxamide]
PKMYT1
  IC50: < 50 nM
[1]
  IC50: 50 to 500 nM

## Cc1c(O)cccc1-c1c(N)c(C(N)=O)nc2c1cnn2C [Compound 56, 5-Amino-4-(3-hydroxy-2-methylphenyl)-1-methyl-pyrazolo[3,4-b]pyridine-6-carboxamide]
PKMYT1
  IC50: 50 to 500 nM
[1]
  IC50: ≥ 5000 nM

## Cc1c(O)cccc1-c1c(N)c(C(N)=O)nc2c1c(Br)nn2C [Compound 57, 5-Amino-3-bromo-4-(3-hydroxy-2-methylphenyl)-1-methyl-1H-pyrazolo[3,4-b]pyridine-6-carboxamide]
PKMYT1
  IC50: 50 to 500 nM
[1]
  IC50: 50 to 500 nM

## Cn1cc(C#N)c2c(-c3cncc(Cl)c3Cl)c(N)c(C(N)=O)nc21 [Compound 66, 5-Amino-3-cyano-4-(4,5-dichloropyridin-3-yl)-1-methyl-1H-pyrrolo[2,3-b]pyridine-6-carboxamide]
PKMYT1
  IC50: < 50 nM
[1]
  IC50: 50 to 500 nM

## COc1c(F)cncc1-c1c(N)c(C(N)=O)nc2c1c(C#N)cn2C [Compound 67, 5-Amino-3-cyano-4-(5-fluoro-4-methoxypyridin-3-yl)-1-methyl-1H-pyrrolo[2,3-b]pyridine-6-carboxamide]
PKMYT1
  IC50: < 50 nM
[1]
  IC50: < 50 nM

## CCn1nc(C(=O)NC)c2c(-c3c(C)ccc(O)c3C)c(N)c(C(N)=O)nc21 [Compound 73, 5-Amino-1-ethyl-4-(3-hydroxy-2,6-dimethylphenyl)-N^3-methyl-1H-pyrazolo[3,4-b]pyridine-3,6-dicarboxamide]
PKMYT1
  IC50: < 50 nM
[1]
  IC50: < 50 nM
